Values quoted from earlier work, collected in patent publication US20110053889A1, “Prenatal and postnatal screening and treatment of critical monosaccharide deficiencies for neurologic and immunologic function” (priority 2008, published 2011).
Where two headings read alike, the source gives them in different places. One block for each compound: values may come before it.

How the values were obtained:
[1] = patient with LAD II (Marquardt et al., 1999)
[2] = oral 50-100 mg/kg body weight, healthy volunteers (Marquardt et al., 1999)
[3] = for Estimated Safe Daily Dose (mg) in 68 kg human: 68 kg human (Gardiner, 2004); for Estimated Safe Daily Dose: based on ADME and safety data and margin-of-safety (Gardiner, 2004)
[4] = ingested (Martin et al., 1998)
[5] = radiolabeled injection (Martin et al., 1998)
[6] = oral 0.07-0.21 g/kg body weight, humans (Alton et al., 1997)
[7] = test system: E. coli; conditions: topical solution applied to maternal vaginas prior to delivery; control 77% (Cox and Taylor, 1990)
[8] = oral single doses (Alton et al., 1997)
[9] = test system: E. coli; conditions: injected, rats (Michaels et al., 1983)
[10] = rats
[11] = oral 1 gram, humans (Talent and Gracy, 1996)

SMILES: C[C@H](O)[C@@H](O)[C@@H](O)[C@H](O)C=O [Fucose, L-fucose]
- clinical outcome of oral supplementation [1]: clinical disappearance of infections and fever
- clearance half-time [2]: 100 min
- time to peak serum fucose concentration [2]: 1 h
- Estimated Safe Daily Dose (mg) in 68 kg human [3]: 34,000 mg
- Estimated Safe Daily Dose [3]: 500 mg/kg/day

SMILES: O=C[C@H](O)[C@@H](O)[C@@H](O)[C@H](O)CO [Galactose, D-galactose]
- Estimated Safe Daily Dose (mg) in 68 kg human [3]: 50,000 mg
- Estimated Safe Daily Dose [3]: 735 mg/kg/day

SMILES: N[C@H]1C(O)O[C@H](CO)[C@@H](O)[C@@H]1O (stereo partly shown) [Glucosamine, glucosamine]
- fraction of the dose oxidized [4]: about one-half
- protein-bound radioactivity in the form of sialic acid [5]: 25-30%

SMILES: O=C[C@@H](O)[C@@H](O)[C@H](O)[C@H](O)CO [Mannose, mannose]
- clearance half-time [6]: about 4 hours
- time to peak blood mannose concentration [6]: approximately 90 minutes
- E. coli bacteremia in newborns [7]: 25%
- single dose that induces osmotic diarrhea [8]: > 200 mg/kg body wt
- time to reduction of E. coli bacteriuria [9]: ≤ 1 days
- increase of glycoprotein incorporation in organs ([10]; at 1-8 hours): 2- to 6 fold
- time to absorption into the serum ([10]; oral, radiolabeled): ≤ 1 h
- Estimated Safe Daily Dose (mg) in 68 kg human [3]: 53,000 mg
- Estimated Safe Daily Dose [3]: 779 mg/kg/day

Second part, led by results:

- Estimated Safe Daily Dose (mg) in 68 kg human [3]: 150,000 mg
SMILES: O=C[C@H](O)[C@@H](O)[C@H](O)[C@H](O)CO [Glucose, D-glucose]
- Estimated Safe Daily Dose [3]: 2,200 mg/kg/d

- Estimated Safe Daily Dose (mg) in 68 kg human [3]: 1,000 mg
- time to significant rise in serum levels of GlcNAc [11]: ≤ 1 h
SMILES: CC(=O)N[C@H]1C(O)O[C@H](CO)[C@@H](O)[C@@H]1O (stereo partly shown) [N-acetylglucosamine]
- Estimated Safe Daily Dose [3]: 15 mg/kg/day

- Estimated Safe Daily Dose (mg) in 68 kg human [3]: 140 mg
SMILES: CC(=O)N[C@H]1[C@H]([C@H](O)[C@H](O)CO)OC(O)(C(=O)O)C[C@@H]1O (stereo partly shown) [Sialic Acid, N-acetylneuraminic acid]
- Estimated Safe Daily Dose [3]: 2 mg/kg/day
